{
  "source": "patent US20070082818A1",
  "about": "“Agrochemical compositions” (priority 2003, published 2007)",
  "key": {"[1]": {"tested_on": "eight representative weed species", "assay": "Bioperformance enhancement of paraquat by amine/amide adjuvants, moving track sprayer", "type": "in vivo", "settings": "paraquat dichloride spray at 10, 20 and 40 g/ha paraquat ion, 200 l/ha; adjuvant 0.5% by weight of spray volume (aminoethylpiperazine 0.625%); 7 days after treatment; mean over all species and combined rates; 0% no herbicidal effect, 100% complete kill", "procedure": "The bioperformance enhancement of paraquat in the presence of amines or amides of the present invention was evaluated. An aqueous formulation of paraquat dichloride containing 0.5% by weight of the quinuclidine (based on the weight of the amine salt), N-(aminopropyl) morphiline (based on the weight of the parent amine) or 1-(2-hydroxethyl-2-imidazolidinone) (based on the weight of the amide), all based on total spray volume was applied using a moving track sprayer to eight representative weed species at 10, 20 and 40 g/ha (based on paraquat ion). The spray volume was equivalent to 200 l/ha. For aminoethylpiperazine the formulation contained 0.625% by weight of the amine (based on the parent amine).\nThe results are compared with an equivalent formulation containing only paraquat chloride."}, "[2]": {"type": "physicochemical", "excerpt": "It is to be understood that the term physical incompatibility in relation to adjuvants used in bipyridyl compositions indicates either gross separation of one or more components of the composition which may or may not be accompanied by a significant change in formulation rheology or bulk homogeneity. It is not necessarily essential that the composition is fully homogeneous in a strict physical sense provided that the composition is substantially homogeneous in the bulk. Thus a slight separation of a second phase may be acceptable provided that the separated phase remains fully dispersed in the bulk. […] This is obviously undesirable for a number of reasons. The term physical compatibility indicates the reverse of physical incompatibility as defined above."}, "[3]": {"tested_on": "drilled broad leaved & grass weeds", "assay": "Field trials of 200 g/l paraquat compositions applied as foliar spray", "type": "in vivo", "settings": "39% and 51% of the conventional adjuvant system substituted", "procedure": "Field Trials were conducted at 8 locations where the target plants were a range of drilled broad leaved & grass weeds. The 200 g/l paraquat compositions were applied as a foliar spray at application rates of 75, 150 & 300 g/ha paraquat ion, and at an application volume of 200 l/ha at a weed growth stage when the grasses were tillering & the broadleaved weeds were branching."}, "[4]": {"assay": "Physical compatibility of formulations by microscopic examination", "type": "physicochemical", "settings": "corresponding formulations with about 120 g/l magnesium sulphate heptahydrate"}},
  "note": "Structures can show the parent of a compound that is named as a salt.",
  "data": [
    {"molecule": "O=C1NCCN1CCO", "note": "[1-(2-hydroxethyl-2-imidazolidinone)]", "values": [
      {"measurement": "Mean Activity (%)", "setting": "[1]", "result": 66, "unit": "%"}
    ]},
    {"molecule": "NCCN1CCNCC1", "note": "[Aminoethylpiperazine]", "values": [
      {"measurement": "Mean Activity (%)", "setting": "[1]", "result": 72, "unit": "%"}
    ]},
    {"molecule": "NCCCN1CCOCC1", "note": "[N-(Aminopropyl) morphiline]", "values": [
      {"measurement": "Mean Activity (%)", "setting": "[1]", "result": 65, "unit": "%"}
    ]},
    {"molecule": "C1CN2CCC1CC2", "note": "[Quinuclidine as hydrochloride salt, Quinuclidine]", "values": [
      {"measurement": "Mean Activity (%)", "setting": "[1]", "result": 68, "unit": "%"}
    ]},
    {"molecule": "CCCCCCCCOC(=O)CC(C(=O)OCCCCCCCC)S(=O)(=O)O.[Na]", "note": "(centres unmarked) [sodium dioctyl sulfosuccinate, reference compound]", "values": [
      {"measurement": "Adjuvant level at which physical separation / two phases were observed", "setting": "[2]; about 120 g/l paraquat ion, about 80 g/l diquat ion, alginate, about 120 g/l magnesium sulphate heptahydrate", "result": "below 10 g/l"}
    ]},
    {"molecule": "aminoethylpiperazine [AEP]", "values": [
      {"measurement": "Effect on biological performance of substituting conventional adjuvant system by AEP", "setting": "[3]", "result": "no deleterious effect"},
      {"measurement": "Adjuvant loading compatible with compositions of WO 02/076212", "setting": "[2]; actual amine", "result": "≥ 40", "unit": "g/L"},
      {"measurement": "Physical compatibility when conventional surfactants were replaced by AEP", "setting": "[4]", "result": "significant improvement"}
    ]}
  ]
}
